Counter-ions that a name gives are not always drawn. Like-named read-outs stand apart in the source and are kept apart here.
What was measured:
[1] = Time course of binding of ergot compounds to DS-MIP (HPLC-ECD assay); conditions: 4:1 (v/v) methanol/water, 28 ± 1 °C
Description: The specificity of binding of a group of ergoline derivatives (ergocryptine, ergocornine, ergocristine, ergonovine, agroclavine, pergolide and terguride) to DS-MIP was assessed in 4:1 (v/v) methanol/water at room temperature (28 ± 1 °C). The binding of all the ergots to DS-MIP reached a constant value within 3 h, with ~50% of the DS-MIP-analyte complex being formed by 1 h (Figure 7). […] Based on the specific binding of the ergots to DS-MIP, the tested ergots are readily distinguished into three groups, based on their chemical structures. All of the ergot derivatives tested had typical four fused rings, indolyl amine, piperidinyl amine, and N-methyl and heteroatom-containing alkylpiperidinyl substituents (except pergolide with the N-propyl substituent). The differential binding of the ergot derivatives is probably a consequence of the interaction of the piperidinyl and indolyl amines with acidic and amide functions within the polymer. The orientation of functional entities within the D and S imprinted cavities was not optimal to complement the ergot derivatives, but they existed in sufficient numbers to produce the observed binding effect.
Figure 7. Time course for the binding of ergot compounds to DS-MIP at room temperature (28 ± 1 °C). Binding studies were conducted in 4:1 (v/v) methanol/water using 12.5 mg of polymer and 12.5 μg of each ergot in a final volume of 5 mL (4.1–10.5 μM). At equilibrium, analytes were quantitated in the filtrate by chromatographic assays as described in the Experimental Section. The values shown are mean ± SD of three replicate specimens.
The binding reactivities of ergocryptine, ergocristine, ergocornine, ergonovine, agroclavine, pergolide and terguride, in an incubation medium were evaluated using a chromatographic assay. Briefly, DS-MIP particulates (2.5 mg/mL) were incubated between 0 and 13 h in 10-mL vials at room temperature by agitation with each ergot compound (2.5 μg/mL, 4.1–10.5 μM) in methanol/water (5 mL, 4:1, v/v). At pre-determined time intervals, the filtrate was analysed for the amount of unbound substance by HPLC (see below). The percentage of ergot bound to the polymer was plotted as a function of the incubation time. Each experiment was repeated three times.
A reversed phase HPLC-ECD detection method was used for assay of the ergots. A mobile phase comprising of a buffer (pH 7.4) and methanol (34:66, % v/v) was used for elution. The buffer composition was as follows: 15 mM KH2PO4, 3.75 mM sodium heptanesulfonate and 7.5 mM KCl aqueous solution adjusted to pH 7.4 by phosphoric acid. The analytical column was a Luna 5μ C18, 25 cm × 0.46 cm (Phenomenex, CA, USA). A flow-rate of 1.0 mL/min was used. The electrochemical detector was set at 0.8 V potential. Correlation coefficients for calibration curves for the ergots in the range 2–25 μg/mL ([…]) were greater than 0.999. The sensitivity of detection was about 1.0 μg/mL (1.64–4.20 μM) and the reproducibility of the peak areas of analytes was more than 95%.

[2] = Competitive ligand binding assay on DS-MIP with D as fluorescent probe; conditions: 25 mg polymer, D 6.60 μM, 5 mL 4:1 methanol/water, 28 ± 1 °C, mean ± SD, n = 3
Description: (§1) In this study, DS-MIP was employed as the sorbent phase for the determination of binding characteristics of the ergot family of alkaloids by competitive ligand binding assay experiment. The ability of the various ergot alkaloids (ergocryptine, ergocornine, ergocristine, ergonovine, agroclavine, pergolide and terguride) to displace bound D and S from the binding sites was measured. Figures 8(a,b) show competitive binding assays with the ergots in the presence of D and S as fluorescent probes. The typical sigmoid calibration curves were obtained for both the D ligand and the S ligand. […] Clearly, the ergot derivatives are able to act as competitors at the DS-MIP binding sites.
(§2) Figure 8. Plots of the ratio of the normalized signal (B/Bî) for MIP to that obtained for NIP against the logarithm of the ergot concentrations for the competitive ligand binding assay using DS-MIP as adsorbent phase and (a) D and (b) S as a fluorescent probe. The values shown are mean ± SD of three replicate specimens.
(§3) Seven ergoline compounds (ergocryptine, ergocristine, ergocornine, ergonovine, agroclavine, pergolide and terguride) were assessed for their ability to displace D or S bound to DS-MIP. DS-MIP or NIP particles (25 mg) were mixed with 6.25 μg of either D (or S) and varying amounts of ergot (final concentration: 0.02 - 500 μg/mL or 0.03 - 890.20 μM) in the suspension solvent (4:1, v/v methanol/water) up to a final volume of 5 ml. The mixture was incubated for 8 h at room temperature, maintaining constant stirring. The changes in fluorescence intensity of D probe in solution were monitored at 320 nm following excitation at 279 nm; for the S probe in solution, monitoring was at 335 nm after excitation at 300 nm. The experimental signals were normalized as: B/Bî, where B is the fluorescence intensity measured in the presence of increasing ergot concentrations and Bî is the signal in the absence of the ergot compound. The ratio of the normalized signal for MIP to that obtained for NIP was plotted as a function of the logarithm of the competitor concentration. Statistical analysis of concentration-response curves was performed by using the computer program GraphPad software, which calculates the lower and upper plateaus, the slope, and the IC50, concentration of an inhibitor producing 50% inhibition. An apparent inhibition constant (Ki) value was calculated using eq (3): (3) Ki=IC50/(1+[L]/Kd) where Ki = apparent inhibitor constant, [L] = free concentration of dopamine or serotonin, and Kd = apparent dissociation constant of a given MIP for D (or S). All experiments were performed in triplicate.

[3] = Competitive ligand binding assay on DS-MIP with S as fluorescent probe; conditions: 25 mg polymer, S 5.90 μM, 5 mL 4:1 methanol/water, 28 ± 1 °C, mean ± SD, n = 3
Description: as §1, §2, §3

[4] = target: dopamine receptors derived from rat hypothalamus; experiment: Displacement of D probe from natural receptor; type: binding, male-Wistar rat; conditions: 10 mg protein, 0.25 μmole D in 1 mL (250 μM), 37 °C, mean ± SD, n = 4; read-out: Ki, D ligand, Rat hypothalamus
Description: (§4) The equilibrium binding constants of the ergots on dopamine and serotonin receptors derived from rat hypothalamus was examined in a displacement assay using the added D and S as the molecular probes. The male-Wistar rat hypothalami receptors were isolated using a previously described procedure. The receptor pellets were washed with 50 mM Tris HCl until the endogenous D and S are no longer found in the rinse as examined by the fluorescence method described in the binding study. The pellets were then re-suspended in 50 mM Tris HCl with 0.5 mM Na2EDTA, 0.1% Na ascorbate before use. The protein content of the receptor pellets was verified by using the procedure of Bradford. Saturation experiments for the rat hypothalamus receptor were carried out by varying the concentration of D or S ligand in a 50 mM Tris HCl with 0.5 mM Na2EDTA and 0.1% Na ascorbate solution at 37 °C. The D and S binding at various concentrations was determined, using the fluorescence spectroscopic method for assay of the unbound probe as in the binding study.
(§5) The ability of 6–8 concentrations of test ergot (0.1–500 μg/mL or 0.16–890.20 μM) for typical profiles) to displace 0.25 μmole D and S probes was measured in drug displacement studies. […] To examine the equilibrium binding constant for the ergots, the unbound D and S probes was measured by fluorescence spectroscopy with the use of cation exchange resin to separate the protein bound and unbound probes. All experiments were performed four times using 50 mM Tris HCl with 0.5 mM Na2EDTA, 0.1% Na ascorbate as the medium, to which 10 mg of protein was added giving a final volume of 1 mL. The tubes were allowed to equilibrate for 30 min at 37 °C before filtering with a 0.45 μm cellulose acetate syringe filter (Whatman, NJ, USA) and were washed with two 5 mL ice-cold Tris-buffer. The filters were lyophilized and analysed for free probes. The supernatant aliquots were then passed through small columns of Amberlite CG-50 as previously reported. The 3 mL of formic acid-ethanol (1:3, v/v) eluates containing the analytes were evaporated to dryness in a polyethylene vial and the residues reconstituted with methanol (5 mL) before assay using fluorescence spectrometry. The binding of D and S probes in the presence of the ergots was calculated and plotted to the ergot concentrations for determination of IC50. An apparent Ki value was calculated in the same manner as described for the competitive ligand binding assay with DS-MIP.

[5] = target: serotonin receptors derived from rat hypothalamus; experiment: Displacement of S probe from natural receptor; type: binding, male-Wistar rat; conditions: 10 mg protein, 0.25 μmole S in 1 mL (250 μM), 37 °C, mean ± SD, n = 4; read-out: Ki, S ligand, Rat hypothalamus
Description: as §4, §5

[6] = 1H-NMR titration of template/functional monomer complexation; type: binding; conditions: d6-DMSO, 25 °C
Text: A mixture of methanol and water (4:1, v/v) was chosen as the porogen solvent for the D and S templates, as the hydrochloride salts were soluble only in polar solvents. The strength and positioning of the monomer-template interactions are of importance in developing materials with good molecular recognition properties. For the current work, the functional monomers and cross-linker had been constructed into the MIP structure with a view toward obtaining an efficient recognition system in a polar medium. MAA and ACM were generally used as functional monomers for the imprinting process. Both D and S have a phenolic hydroxyl and the nitrogen atom(s) of the amine group(s) acts as a hydrogen donor-acceptor moiety for binding functional monomers with a corresponding hydrogen bonding pattern. […] However, the huge excess of water and methanol that would be form H-bonds in competition with template and monomer, would reduce binding energy between template and monomer. […] The MBAA cross-linker also forms hydrogen bonds with the carboxylic acid and amino groups of the templates. Figure 2 illustrates the dual dopamine/serotonin molecular recognition site generation in this work.
The change in chemical shifts of proton resonances as a function of D (or S) concentrations was studied in DMSO-d6.

[7] = test system: dopamine receptors derived from rat hypothalamus; conditions: D ligand, 50 mM Tris HCl, 37 °C, mean ± SD, n = 3
Description: as §4

[8] = test system: serotonin receptors derived from rat hypothalamus; experiment: Saturation binding of S ligand to rat hypothalamus receptor (Scatchard); parameters: species or system male-Wistar rat; conditions: 50 mM Tris HCl, 37 °C, mean ± SD
Description: as §4

Compound	Ki [2] [µM]	Ki [3] [µM]	Ki [4] [nM]	Ki [5] [µM]	binding to DS-MIP, fold lower than agroclavine [1]	other results
CC1=C[C@@H]2c3cccc4[nH]cc(c34)C[C@H]2N(C)C1 [Agroclavine, agroclavine]	0.4 ± 0.01	5.31 ± 0.22	1.5 ± 0.2	0.0012 ± 0.0001		binding with DS-MIP ([1]; DS-MIP 2.5 mg/mL, ergot 2.5 μg/mL): 70%
NCCc1ccc(O)c(O)c1 [D, Dopamine hydrochloride]						Kd ([6]; 1:1 complex of D with single monomer, read-out: apparent dissociation constant (app. Kdiss) of complex with ACM): 1980 ± 100 µM; Kd ([6]; 1:1 complex of D with single monomer, read-out: apparent dissociation constant (app. Kdiss) of complex with MAA): 2120 ± 200 µM; receptor binding (Bmax) [7]: 1.50 ± 0.09 pmol/mg protein; Kd ([7]; read-out: dissociation constant (Kd)): 0.00053 ± 0.00015 µM
CC(C)[C@H]1C(=O)N2CCC[C@H]2[C@]2(O)O[C@](NC(=O)[C@@H]3C=C4c5cccc6[nH]cc(c56)C[C@H]4N(C)C3)(C(C)C)C(=O)N12 [Ergocornine, ergocornine]	217 ± 2.59	27.2 ± 0.78	10.4 ± 0.2	0.02 ± 0.0001	about 2 fold	
CC(C)[C@@]1(NC(=O)[C@@H]2C=C3c4cccc5[nH]cc(c45)C[C@H]3N(C)C2)O[C@@]2(O)[C@@H]3CCCN3C(=O)[C@H](Cc3ccccc3)N2C1=O [Ergocristine, ergocristine]	141 ± 1.47	19.3 ± 0.6	7.6 ± 0.1	0.0068 ± 0.0002	about 2 fold	
CC(C)C[C@H]1C(=O)N2CCC[C@H]2[C@]2(O)O[C@](NC(=O)[C@@H]3C=C4c5cccc6[nH]cc(c56)C[C@H]4N(C)C3)(C(C)C)C(=O)N12 [Ergocryptine, ergocryptine]	124.9 ± 1.22	24.9 ± 0.69	2.8 ± 0.2	0.01 ± 0.0004	about 2 fold	
C[C@@H](CO)NC(=O)[C@@H]1C=C2c3cccc4[nH]cc(c34)C[C@H]2N(C)C1 [Ergonovine, ergonovine maleate]	69.57 ± 0.51	14.7 ± 0.29	2.5 ± 0.1	0.0012 ± 0.0001	~ 1.25 fold	
CCCN1C[C@H](CSC)C[C@@H]2c3cccc4[nH]cc(c34)C[C@H]21 [Pergolide, pergolide mesylate]	0.2 ± 0.01	12.78 ± 0.09	0.7 ± 0.1	0.006 ± 0.0002	~ 1.25 fold	
NCCc1c[nH]c2ccc(O)cc12 [S, serotonin hydrochloride]						Kd ([6]; S template, 1:1 complex, read-out: app. Kdiss with MAA, template's hydroxyl group): 680 ± 100 µM; Kd ([6]; S template, 1:1 complex, read-out: app. Kdiss with MAA, template's indolyl amino group): 920 ± 100 µM; Kd ([6]; S template, read-out: app. Kdiss with ACM, template's hydroxyl group): 190 ± 100 µM; Kd ([6]; S template, read-out: app. Kdiss with ACM, template's indolyl amino group): 430 ± 100 µM; receptor binding (Bmax) ([8]; n = 3): 1.11 ± 0.01 pmol/mg protein; Kd ([8]; n = 3, read-out: dissociation constant (Kd)): 0.00011 ± 1e-05 µM
CCN(CC)C(=O)N[C@H]1C[C@@H]2c3cccc4[nH]cc(c34)C[C@H]2N(C)C1 [Terguride, terguride]	0.14 ± 0.01	7.79 ± 0.17	0.03 ± 0.005	0.0013 ± 0.0001	~ 1.25 fold	
